Laboratory results taken from ChEMBL document CHEMBL3352808, “Anthraquinone-chalcone hybrids: synthesis, preliminary antiproliferative evaluation and DNA-interaction studies” (Eur J Med Chem, 2015).
Activity calls are given as the source filed them. No cut-off for these calls is given here.

Assays:
A549 [1] = test: Cytotoxicity against human A549 cells assessed as reduction in cell survival after 72 hrs by MTT assay; type: functional, cell-based; conditions: A549, 72 h
HeLa [2] = test: Cytotoxicity against human HeLa cells assessed as reduction in cell survival after 72 hrs by MTT assay; type: functional, cell-based
MRC5 = test: Cytotoxicity against human MRC5 cells assessed as reduction in cell survival after 72 hrs by MTT assay; type: cell-based; conditions: MRC5, 72 h
[3] = Cytotoxicity against human LS174 cells assessed as reduction in cell survival after 72 hrs by MTT assay; type: functional, cell-based; conditions: LS174, 72 h
HeLa [4] = test: Induction of cell cycle arrest in human HeLa cells assessed as accumulation at G2/M phase at cytotoxic IC50 level after 24 hrs by propidium iodide staining based flow cytometry (reference value: 24.77%); type: functional
A549 [5] = test: Induction of caspase-3 activation in human A549 cells assessed as increase in spectrin cleavage product level at cytotoxic IC50 level after 24 hrs by Western blotting method; type: functional, cell-based
A549 [6] = test: Induction of apoptosis in human A549 cells assessed as increase in p18 Bax level at cytotoxic IC50 level after 24 hrs by Western blotting method; type: functional, cell-based
HeLa [7] = test: Induction of apoptosis in human HeLa cells assessed as caspase-3 activation at cytotoxic IC50 level after 24 hrs by Western blotting method; type: functional, cell-based
HeLa [8] = test: Induction of apoptosis in human HeLa cells assessed as increase in p18 Bax level at cytotoxic IC50 level after 24 hrs by Western blotting method; type: functional, cell-based
HeLa [9] = test: Induction of cell cycle arrest in human HeLa cells assessed as accumulation at subG1 phase at 2 times cytotoxic IC50 level after 24 hrs by propidium iodide staining based flow cytometry (reference value: 2.53%); type: functional
HeLa [10] = test: Induction of cell cycle arrest in human HeLa cells assessed as accumulation at S phase at cytotoxic IC50 level after 24 hrs by propidium iodide staining based flow cytometry (reference value: 14.5%); type: functional
Escherichia coli [11] = test: Induction of DNA cleavage of Escherichia coli pUC19 at 2 mM by agarose gel elctrophoresis method
Bos taurus [12] = species: Bos taurus; test: Displacement of ethidium bromide from calf thymus DNA at 30 to 60 uM by spectroscopy
HeLa [13] = test: Induction of cell cycle arrest in human HeLa cells assessed as accumulation at subG1 phase at cytotoxic IC50 level after 24 hrs by propidium iodide staining based flow cytometry (reference value: 2.53%); type: functional
HeLa [14] = test: Induction of cell cycle arrest in human HeLa cells assessed as accumulation at S phase at 2 times cytotoxic IC50 level after 24 hrs by propidium iodide staining based flow cytometry (reference value: 14.5%); type: functional
HeLa [15] = test: Induction of cell cycle arrest in human HeLa cells assessed as accumulation at G2/M phase at 2 times cytotoxic IC50 level after 24 hrs by propidium iodide staining based flow cytometry (reference value: 24.77%); type: functional
HeLa [16] = test: Induction of caspase-3 activation in human HeLa cells assessed as increase in spectrin cleavage product level at cytotoxic IC50 level after 24 hrs by Western blotting method; type: functional, cell-based
Bos taurus [17] = species: Bos taurus; test: Displacement of Hoechst 33258 from calf thymus DNA at 30 to 60 uM by spectroscopy relative to control
HeLa [18] = test: Induction of cell cycle arrest in human HeLa cells assessed as accumulation at G1 phase at cytotoxic IC50 level after 24 hrs by propidium iodide staining based flow cytometry (reference value: 51.33%); type: functional
A549 [19] = test: Induction of apoptosis in human A549 cells assessed as caspase-3 activation at cytotoxic IC50 level after 24 hrs by Western blotting method; type: functional, cell-based
Bos taurus [20] = species: Bos taurus; test: Displacement of Hoechst 33258 from calf thymus DNA at 30 to 60 uM by spectroscopy
Calf thymus DNA [21] = test: Binding affinity to calf thymus DNA assessed as binding constant at 20 to 60 uM by spectroscopy; type: nucleic-acid assay; conditions: Bos taurus
Calf thymus DNA [22] = test: Binding affinity to calf thymus DNA assessed as hyperchromism at 20 to 60 uM by spectroscopy; type: nucleic-acid assay; conditions: Bos taurus
HeLa [23] = test: Induction of cell cycle arrest in human HeLa cells assessed as accumulation at G1 phase at 2 times cytotoxic IC50 level after 24 hrs by propidium iodide staining based flow cytometry (reference value: 51.33%); type: functional
Escherichia coli [24] = test: Inhibition of Fe(2+)-induced DNA cleavage of Escherichia coli pUC19 at 1:1 compound to iron ratio by agarose gel elctrophoresis method
Escherichia coli [25] = test: Inhibition of Fe(2+)-induced DNA cleavage of Escherichia coli pUC19 at 1:2 compound to iron ratio by agarose gel elctrophoresis method

Q: With `O=C(/C=C/c1ccc(/C=C/C(=O)c2cccc3c2C(=O)c2ccccc2C3=O)cc1)c1ccc(F)cc1` as the molecule, how does the IC50 (A549 [1]) read?
A: 36.3 µM

Q: What about the IC50 (HeLa [2]) of the same molecule?
A: 2.62 µM

Q: And the IC50 (MRC5)?
A: 37 µM

Q: What about the IC50 [3] of the same molecule?
A: 10.6 µM

Q: For `Cc1ccccc1/C=C/C(=O)c1cccc2c1C(=O)c1ccccc1C2=O`, which IC50 (A549 [1]) is on record?
A: 44.6 µM

Q: And the IC50 (HeLa [2])?
A: 12.1 µM

Q: What about the IC50 (MRC5) of the same molecule?
A: 48.6 µM

Q: What about the IC50 [3] of the same molecule?
A: 45.2 µM

Q: With `COc1cccc(C(=O)/C=C/c2ccc(/C=C/C(=O)c3cccc4c3C(=O)c3ccccc3C4=O)cc2)c1` as the molecule, how does the IC50 (A549 [1]) read?
A: 30.9 µM

Q: And the IC50 (HeLa [2])?
A: 2.77 µM

Q: And the IC50 (MRC5)?
A: 46.5 µM

Q: And the IC50 [3]?
A: 16.7 µM

Q: Which IC50 (A549 [1]) does the source give for `Cc1cccc(/C=C/C(=O)c2cccc3c2C(=O)c2ccccc2C3=O)c1` here?
A: 33 µM

Q: And the IC50 (HeLa [2])?
A: 11.6 µM

Q: And the IC50 (MRC5)?
A: 33.7 µM

Q: And the IC50 [3]?
A: 21.5 µM

Q: With `O=C(/C=C/c1ccc(Cl)cc1)c1cccc2c1C(=O)c1ccccc1C2=O` as the molecule, how does the IC50 (A549 [1]) read?
A: 35.3 µM

Q: And the IC50 (HeLa [2])?
A: 33.1 µM

Q: And the IC50 (MRC5)?
A: 52 µM

Q: And the IC50 [3]?
A: 47.2 µM

Q: Which results are given for `Cc1ccc(/C=C/C(=O)c2cccc3c2C(=O)c2ccccc2C3=O)cc1`?
A: IC50 (A549 [1]): 38.3 µM; IC50 (HeLa [2]): 34.1 µM; IC50 (MRC5): 50.5 µM; IC50 [3]: 48.2 µM

Q: Which Activity (HeLa [4]) does the source give for `Cc1ccccc1C(=O)/C=C/c1ccc(/C=C/C(=O)c2cccc3c2C(=O)c2ccccc2C3=O)cc1` here?
A: 32.79%

Q: What about the Activity (A549 [5]) of the same molecule?
A: Active

Q: What about the Activity (A549 [6]) of the same molecule?
A: inactive

Q: And the Activity (HeLa [7])?
A: Active

Q: And the Activity (HeLa [8])?
A: Active

Q: And the Activity (HeLa [9])?
A: 7.89%

Q: What about the Activity (HeLa [10]) of the same molecule?
A: 17.29%

Q: And the Activity (Escherichia coli [11])?
A: inactive

Q: What about the IC50 (A549 [1]) of the same molecule?
A: 29.1 µM

Q: What about the Activity (Bos taurus [12]) of the same molecule?
A: inactive

Q: And the Activity (HeLa [13])?
A: 5.56%

Q: And the IC50 (HeLa [2])?
A: 2.36 µM

Q: What about the Activity (HeLa [14]) of the same molecule?
A: 24.44%

Q: What about the Activity (HeLa [15]) of the same molecule?
A: 31.12%

Q: And the Activity (HeLa [16])?
A: Active

Q: And the IC50 (MRC5)?
A: 41.9 µM

Q: And the Imax (Bos taurus [17])?
A: 61%

Q: And the Activity (HeLa [18])?
A: 38.76%

Q: And the Activity (A549 [19])?
A: Active

Q: And the inhibition (Bos taurus [20])?
A: Dose-dependent effect

Q: What about the Kb (Calf thymus DNA [21]) of the same molecule?
A: 1.36 ×10³ /M

Q: And the Activity (Calf thymus DNA [22])?
A: Active

Q: And the IC50 [3]?
A: 3.13 µM

Q: And the Activity (HeLa [23])?
A: 36.75%

Q: For `O=C(/C=C/c1ccc(/C=C/C(=O)c2cccc3c2C(=O)c2ccccc2C3=O)cc1)c1ccccc1F`, which IC50 (A549 [1]) is on record?
A: 31.6 µM

Q: And the IC50 (HeLa [2])?
A: 2.66 µM

Q: What about the IC50 (MRC5) of the same molecule?
A: 31.5 µM

Q: And the IC50 [3]?
A: 17.8 µM

Q: For `COc1ccccc1C(=O)/C=C/c1ccc(/C=C/C(=O)c2cccc3c2C(=O)c2ccccc2C3=O)cc1`, which IC50 (A549 [1]) is on record?
A: 28.1 µM

Q: What about the IC50 (HeLa [2]) of the same molecule?
A: 2.7 µM

Q: And the IC50 (MRC5)?
A: 43.6 µM

Q: What about the IC50 [3] of the same molecule?
A: 10.8 µM

Q: For `O=C(/C=C/c1ccc(/C=C/C(=O)c2cccc3c2C(=O)c2ccccc2C3=O)cc1)c1ccccc1`, which Activity (HeLa [4]) is on record?
A: 35.25%

Q: And the inhibition (Escherichia coli [24])?
A: Active

Q: What about the Activity (A549 [6]) of the same molecule?
A: inactive

Q: What about the Activity (HeLa [7]) of the same molecule?
A: Active

Q: And the Activity (HeLa [8])?
A: Active

Q: And the Activity (HeLa [9])?
A: 4.96%

Q: And the Activity (HeLa [10])?
A: 17.06%

Q: What about the Activity (Escherichia coli [11]) of the same molecule?
A: inactive

Q: And the IC50 (A549 [1])?
A: 26.2 µM

Q: What about the Activity (Bos taurus [12]) of the same molecule?
A: inactive

Q: What about the Activity (HeLa [13]) of the same molecule?
A: 4.66%

Q: And the IC50 (HeLa [2])?
A: 2.41 µM

Q: What about the Activity (HeLa [14]) of the same molecule?
A: 23.04%

Q: What about the Activity (HeLa [15]) of the same molecule?
A: 34.02%

Q: And the Activity (HeLa [16])?
A: Active

Q: And the IC50 (MRC5)?
A: 33.6 µM

Q: And the Imax (Bos taurus [17])?
A: 52%

Q: And the inhibition (Escherichia coli [25])?
A: inactive

Q: What about the Activity (HeLa [18]) of the same molecule?
A: 37.54%

Q: And the Activity (A549 [19])?
A: Active

Q: What about the inhibition (Bos taurus [20]) of the same molecule?
A: Dose-dependent effect

Q: What about the Kb (Calf thymus DNA [21]) of the same molecule?
A: 2.65 ×10³ /M

Q: And the Activity (Calf thymus DNA [22])?
A: Active

Q: And the IC50 [3]?
A: 4.56 µM

Q: What about the Activity (HeLa [23]) of the same molecule?
A: 36.61%

Q: Which IC50 (A549 [1]) does the source give for `O=C(/C=C/c1ccccc1)c1cccc2c1C(=O)c1ccccc1C2=O` here?
A: 35.5 µM

Q: What about the IC50 (HeLa [2]) of the same molecule?
A: 14.8 µM

Q: What about the IC50 (MRC5) of the same molecule?
A: 46.4 µM

Q: And the IC50 [3]?
A: 31.3 µM

Q: What does the source list for `Cc1cccc(C(=O)/C=C/c2ccc(/C=C/C(=O)c3cccc4c3C(=O)c3ccccc3C4=O)cc2)c1`?
A: IC50 (A549 [1]): 33.7 µM; IC50 (HeLa [2]): 2.45 µM; IC50 (MRC5): 52 µM; IC50 [3]: 11.8 µM

Q: Which results are given for `COc1ccc(C(=O)/C=C/c2ccc(/C=C/C(=O)c3cccc4c3C(=O)c3ccccc3C4=O)cc2)cc1`?
A: IC50 (A549 [1]): 47.7 µM; IC50 (HeLa [2]): 4.96 µM; IC50 (MRC5): 47.4 µM; IC50 [3]: 34.1 µM

Q: Which results are given for `O=C(/C=C/c1ccc(/C=C/C(=O)c2cccc3c2C(=O)c2ccccc2C3=O)cc1)c1ccccc1[N+](=O)[O-]`?
A: Activity (HeLa [4]): 31.41%; Activity (A549 [5]): Active; Activity (A549 [6]): inactive; Activity (HeLa [7]): Active; Activity (HeLa [8]): Active; Activity (HeLa [9]): 5.14%; Activity (HeLa [10]): 17.66%; Activity (Escherichia coli [11]): inactive; IC50 (A549 [1]): 28.8 µM; Activity (Bos taurus [12]): inactive; Activity (HeLa [13]): 4.65%; IC50 (HeLa [2]): 2.73 µM; Activity (HeLa [14]): 25.39%; Activity (HeLa [15]): 34.15%; Activity (HeLa [16]): Active; IC50 (MRC5): 48.8 µM; Imax (Bos taurus [17]): 41%; Activity (HeLa [18]): 41.5%; Activity (A549 [19]): Active; inhibition (Bos taurus [20]): Dose-dependent effect; Kb (Calf thymus DNA [21]): 2.51 ×10³ /M; Activity (Calf thymus DNA [22]): Active; IC50 [3]: 6.44 µM; Activity (HeLa [23]): 35.58%

Q: For `Cc1ccc(C(=O)/C=C/c2ccc(/C=C/C(=O)c3cccc4c3C(=O)c3ccccc3C4=O)cc2)cc1`, which IC50 (A549 [1]) is on record?
A: 24.2 µM

Q: And the IC50 (HeLa [2])?
A: 2.64 µM

Q: And the IC50 (MRC5)?
A: 38.5 µM

Q: What about the IC50 [3] of the same molecule?
A: 22.6 µM
